{
  "source": "patent US20210395650A1",
  "about": "“COMPOUNDS STABILIZING HYDROLASES IN LIQUIDS” (BASF SE, priority 2018, published 2021)",
  "biological_target": "T1, Savinase® 16.0L (Lederbergia lenta, UniProt P29600)",
  "T1 construct": "purchased Sigma-Aldrich",
  "T1 sequence (P29600 1-269)": "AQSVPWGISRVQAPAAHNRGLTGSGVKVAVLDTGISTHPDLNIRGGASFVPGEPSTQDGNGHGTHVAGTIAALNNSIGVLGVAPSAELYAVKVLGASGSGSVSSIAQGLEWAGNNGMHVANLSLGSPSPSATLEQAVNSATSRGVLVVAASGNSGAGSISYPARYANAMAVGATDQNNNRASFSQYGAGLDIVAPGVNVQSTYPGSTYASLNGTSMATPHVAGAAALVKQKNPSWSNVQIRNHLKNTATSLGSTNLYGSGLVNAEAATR",
  "assay": "Protease storage stability in liquid formulations at 37° C. (Suc-AAPF-pNA assay)",
  "type": "biochemical",
  "conditions": "0.7 wt% Savinase 16.0 L",
  "experimental": "The storage stability of protease was assessed at 37° C.\nBase test formulations were manufactured by making base formulations I to V by mixing the components according to Table 1.\nProtease used: Savinase® 16.0L (CAS-No. 9014-01-1, EC-No. 232-752-2) was purchased from Sigma-Aldrich.\nThe respective component (a) or comparative compound was added, if applicable, to the respective base formulation in amounts as indicated in Table 1.\nThe amount of protease as provided in Table 1 refers to active protein.\nWater was added to accomplish the balance to 100.\nSavinase activity at certain points in time as indicated in Table 2 was be determined by employing Succinyl-Ala-Ala-Pro-Phe-p-nitroanilide (Suc-AAPF-pNA, short AAPF) as substrate. pNA is cleaved from the substrate molecule by proteolytic cleavage, resulting in release of yellow color of free pNA which was determined by measuring OD405. Measurements were done at 20° C.\nThe proteolytic activity values provided in Table 3 were calculated referring to the 100% value determined in the reference formulation at the time 0.\nThe nomenclature of formulations is as follows: the Roman number before the full stop characterizes the base formulation, the Arabian number the type of compound (A. # compound according to invention (component (a)); (B. #) comparative compound).",
  "data": [
    {"substance": "Diethylcitrate [A.7]", "values": [
      {"measurement": "protease activity in the course of time of storage at 37° C.", "setting": "base formulation I, 2.5 wt% compound, 3 d", "result": 95, "unit": "%"},
      {"measurement": "protease activity in the course of time of storage at 37° C.", "setting": "base formulation I, 2.5 wt% compound, 7 d", "result": 91, "unit": "%"},
      {"measurement": "protease activity in the course of time of storage at 37° C.", "setting": "base formulation I, 2.5 wt% compound, 14 d", "result": 85, "unit": "%"},
      {"measurement": "protease activity in the course of time of storage at 37° C.", "setting": "base formulation I, 2.5 wt% compound, 21 d", "result": 81, "unit": "%"},
      {"measurement": "protease activity in the course of time of storage at 37° C.", "setting": "base formulation I, 2.5 wt% compound, 28 d", "result": 76, "unit": "%"},
      {"measurement": "protease activity in the course of time of storage at 37° C.", "setting": "base formulation I, 2.5 wt% compound, 35 d", "result": 69, "unit": "%"},
      {"measurement": "protease activity in the course of time of storage at 37° C.", "setting": "base formulation I, 2.5 wt% compound, T0", "result": 100, "unit": "%"},
      {"measurement": "protease activity in the course of time of storage at 37° C.", "setting": "base formulation II, 2.5 wt% compound, 3 d", "result": 98, "unit": "%"},
      {"measurement": "protease activity in the course of time of storage at 37° C.", "setting": "base formulation II, 2.5 wt% compound, 7 d", "result": 96, "unit": "%"},
      {"measurement": "protease activity in the course of time of storage at 37° C.", "setting": "base formulation II, 2.5 wt% compound, 14 d", "result": 94, "unit": "%"},
      {"measurement": "protease activity in the course of time of storage at 37° C.", "setting": "base formulation II, 2.5 wt% compound, 21 d", "result": 90, "unit": "%"},
      {"measurement": "protease activity in the course of time of storage at 37° C.", "setting": "base formulation II, 2.5 wt% compound, 28 d", "result": 87, "unit": "%"},
      {"measurement": "protease activity in the course of time of storage at 37° C.", "setting": "base formulation II, 2.5 wt% compound, 35 d", "result": 83, "unit": "%"},
      {"measurement": "protease activity in the course of time of storage at 37° C.", "setting": "base formulation II, 2.5 wt% compound, T0", "result": 98, "unit": "%"},
      {"measurement": "protease activity in the course of time of storage at 37° C.", "setting": "base formulation III, 2.0 wt% compound, 3 d", "result": 96, "unit": "%"},
      {"measurement": "protease activity in the course of time of storage at 37° C.", "setting": "base formulation III, 2.0 wt% compound, 7 d", "result": 93, "unit": "%"},
      {"measurement": "protease activity in the course of time of storage at 37° C.", "setting": "base formulation III, 2.0 wt% compound, 14 d", "result": 84, "unit": "%"},
      {"measurement": "protease activity in the course of time of storage at 37° C.", "setting": "base formulation III, 2.0 wt% compound, 21 d", "result": 83, "unit": "%"},
      {"measurement": "protease activity in the course of time of storage at 37° C.", "setting": "base formulation III, 2.0 wt% compound, 28 d", "result": 76, "unit": "%"},
      {"measurement": "protease activity in the course of time of storage at 37° C.", "setting": "base formulation III, 2.0 wt% compound, 35 d", "result": 72, "unit": "%"},
      {"measurement": "protease activity in the course of time of storage at 37° C.", "setting": "base formulation III, 2.0 wt% compound, T0", "result": 100, "unit": "%"}
    ]}
  ]
}
